Counter-ions that a name gives are not always drawn. Like-named read-outs stand apart in the source and are kept apart here. Values belong to the compound of their own block, whether it stands above or below them.
What was measured:
estrogen receptors = target: T1, estrogen receptors (Rattus norvegicus, UniProt P06211); experiment: affinity to estrogen receptors, competition with 3H-labelled 17-β-estradiol (dextran-charcoal method); assay type: binding; conditions: rat uterus cytosol, Table 1; read-out: Affinity (concentration of compound where 50% competition (inhibition) with 3H-estradiol occurred)
T1 construct: rat uterus cytosol preparation; from tissue; host or cells: rat uterus cytosol
T1 sequence (P06211 1-600): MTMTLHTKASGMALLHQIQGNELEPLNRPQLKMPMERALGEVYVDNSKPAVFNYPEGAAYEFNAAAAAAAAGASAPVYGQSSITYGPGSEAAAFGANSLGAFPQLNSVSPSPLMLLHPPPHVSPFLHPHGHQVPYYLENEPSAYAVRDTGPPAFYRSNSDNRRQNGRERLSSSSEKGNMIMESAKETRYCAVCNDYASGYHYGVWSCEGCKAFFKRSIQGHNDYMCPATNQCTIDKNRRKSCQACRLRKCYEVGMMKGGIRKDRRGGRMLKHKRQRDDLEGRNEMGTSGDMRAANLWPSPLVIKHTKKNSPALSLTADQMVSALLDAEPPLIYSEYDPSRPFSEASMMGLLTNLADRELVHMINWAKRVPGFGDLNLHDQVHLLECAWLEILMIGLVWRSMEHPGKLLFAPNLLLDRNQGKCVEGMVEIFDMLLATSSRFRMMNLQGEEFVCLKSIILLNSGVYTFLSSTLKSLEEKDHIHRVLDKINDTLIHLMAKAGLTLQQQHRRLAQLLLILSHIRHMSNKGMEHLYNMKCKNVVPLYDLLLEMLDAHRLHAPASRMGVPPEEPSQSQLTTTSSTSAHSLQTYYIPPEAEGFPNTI
Method: The affinity to estrogen receptors was determined by the ability of the molecules to compete with ^3 H-labelled 17-β-estradiol in rat uterus cytosol preparation. After incubation, receptor-bound and receptor-unbound ligands were separated by a known dextrancharcoal method. (Korenman, S. G.: "Comparative binding affinity of estrogens and its relation to estrogenic potency". Steroids 13: 163-177, 1969). […] The results in table 1 are shown as follows: | with ^3 H--estradiol occurred

immature mouse uterus [1] = experiment: estrogenic effect in vivo, immature mouse uterus weight; conditions: for oestrogenic effect, % less than that of oestradiol 0.05 mg/kg: s.c., immature mice; for estrogenic effect (in words): immature mouse uterus weight; for Given alone: oestrogenic effect (in words): Table 2, 0.5 mg/kg
Method: (§1) The estrogen-antiestrogen (progesterone-antiprogesterone) effect in vivo was determined as follows:
The estrogenic properties of the molecules were determined by administering the molecules, suspended in sesam oil, subcutaneously to 21 days old immature mice on three consecutive days. The mice were killed on the fourth day and the uterus was weighed. Estradiol (positive control) increases the weight of the uterus. The weight correlates with the estrogenic effect of the molecules.
The estrogenic effect of compounds of the invention as measured by their ability to increase the weight of immature mouse uterus was usually far less than that of oestradiol, the positive control. […] At the dose of 0.5 mg/kg the oestrogenic effect of compound 1, 7 and 8 were respectively 20%, 75% and 83% less and at the dose of 5 mg/kg the oestrogenic effect of compound 2 was 60% less than that of oestradiol 0.05 mg/kg.
(§2) In Table 2 a summary of the oestrogenic/antioestrogenic and progestanic/antiprogestanic effect of some of the compounds can be seen. The percentages refer to increase/reduction in mice uterus weights.

immature mouse uterus [2] = experiment: antiestrogenic effect in vivo, inhibition of oestradiol induced uterus weight increase in immature mice; conditions: for antiestrogenic effect (in words): immature mice
Method: as §1
The antiestrogenic effects of the molecules were determined in a similar manner in immature mice. In this case, the ability of the molecules to inhibit estrogen-induced uterus weight increase was investigated, too.
The compound 1 at a dose of 0.5 mg/kg caused a 50% inhibition of oestradiol induced effect on mouse uterus.
as §2

[3] = system: MCF-7 human mammary adenocarcinoma cell line; experiment: anti-tumour effect in vitro, growth of MCF-7 cells (bioluminescence ATP assay); assay type: cell-based; conditions: MCF-7, Table 3, read-out: Antitumour effect (IC50 = concentration of compound where 50% inhibition of cell growth could be seen)
Method: The anti-tumour effect was studied in vitro as follows:
The growth of MCF-7 cell line (human mammary adenocarcinoma, known to be estrogen-dependent) was evaluated in the presence or absence of estradiol, medroxyprogesterone acetate or the molecules to be investigated. Combinations of molecule plus estradiol and molecule plus medroxyprogesterone were also studied. The amount of living cells after 4 h, 24 h and 48 h incubations were determined by bioluminescence assay (intracellular ATP determination).
The antitumour effects of the compounds had been tested in vitro against MCF-7 human mammary adenocarcinoma cell line and in vivo against DMBA-induced rat mammary adenocarcinomas and transplantable mammary adenocarcinoma.
In table 3 the antitumour effects of certain compounds can be seen.

[4] = system: DMBA-induced rat mammary adenocarcinomas; experiment: antitumour effect in vivo against DMBA-induced rat mammary adenocarcinomas
Method: (§3) The anti-tumour effect was investigated in vivo against DMBA-induced rat mammary adenocarcinomas and transplantable mammary adenocarcinoma according to the following methods:
Mammary adenocarcinomas were induced by DMBA in 35-40 days old female rats. Treatment with the molecules to be investigated was started after palpable tumours had appeared. Tumour size and numbers of tumours were evaluated twice a week. Tumour sizes in the control group, treated with solvent, were compared with the test groups.
The antitumour effect in vivo against DMBA-induced mammary carcinomas was investigated as described earlier. […] Compound 2 at the dose of 7.5 mg/kg caused a 63% decrease in the size of tumours compared to the control.

[5] = system: transplantable rat mammary adenocarcinoma; experiment: effect on transplantable rat mammary adenocarcinoma; assay type: in vivo
Text: as §3
Transplantable rat mammary adenocarcinoma was developed by inoculating pieces of DMBA-induced carcinomas subcutaneously to healthy mature female rats. A tumor which expressed malignant growth was selected for further transplantations.
The effects of compounds mentioned earlier against transplantable rat mammary adenocarcinoma can be seen in table 4.
The figures in table 4 refer to relative sizes compared to controls which is 100.

mouse uterus [6] = experiment: progestanic effect in vivo, reduction of mouse uterus weight; conditions: for Given alone: progestanic effect (in words) / Given alone: reduction in mice uterus weight: Table 2, 0.5 mg/kg
Method: as §1
(§4) The (anti)progestanic effects were studied in a similar manners as the estrogenic ones. Medroxyprogesterone acetate, which decreases uterus weight, was used as reference.
(§5) The progestanic and antiprogestanic effects of compounds were measured as described earlier. The compound No. 2 reduced the weight of mouse uterus by 49% compared to control while medroxyprogesterone acetate gave 40% reduction.
as §2

mouse uterus [7] = experiment: antiprogestanic/synergistic effect in vivo, given together with medroxyprogesterone acetate, mouse uterus weight; conditions: for Given with medroxyprogesterone acetate: effect (in words) / Given with medroxyprogesterone acetate: reduction in mice uterus weight: Table 2, 0.5 mg/kg, with medroxyprogesterone acetate 0.06 mg/kg
Method: as §1, §4, §5, §2

[8] = Table 2, 0.5 mg/kg, with oestradiol 0.05 mg/kg
[9] = together with medroxyprogesterone acetate

SMILES: CC/C(=C(/c1ccccc1)c1ccc(O)cc1)C1CCCC1 [Compound 1, (E)--2-cyclopentyl-1-(p-hydroxyphenyl)-1-phenyl-1-butene]
IC50 (estrogen receptors): 0.1 to 1 µM
oestrogenic effect, % less than that of oestradiol 0.05 mg/kg (immature mouse uterus [1]; 0.5 mg/kg): 20%
estrogenic effect (in words) (immature mouse uterus [1]): dose dependent
inhibition of oestradiol induced effect on mouse uterus (immature mouse uterus [2]; 0.5 mg/kg): 50%
IC50 ([3]; Homo sapiens, MCF7): 1 to 5 µM
decrease in size of tumours compared to the control ([4]; 10 mg/kg): 75%
growth of the tumours (in words) ([4]; 10 mg/kg): the growth of the tumours was slowed
number of the tumours (in words) ([4]; 10 mg/kg): the number of the tumours was decreasing
relative tumour size compared to controls which is 100 ([5]; 1.0 mg/kg): 80
relative tumour size compared to controls which is 100 ([5]; 5.0 mg/kg): 77
relative tumour size compared to controls which is 100 ([5]; 10.0 mg/kg): 58
relative tumour size compared to controls which is 100 ([5]; 20.0 mg/kg): 64
relative tumour size compared to controls which is 100 ([5]; 40.0 mg/kg): 40

SMILES: CC/C(=C(\c1ccccc1)c1ccc(O)cc1)C1CCCC1 [Compound 3, (Z)-2-cyclopentyl-1-(p-hydroxyphenyl)-1-phenyl-1-butene]
IC50 (estrogen receptors): 0.1 to 10 µM
IC50 ([3]; Homo sapiens, MCF7): 1 to 5 µM

SMILES: CCC(C1CCCC1)C(c1ccccc1)c1ccc(O)cc1 (stereo not shown) [Compound 4, 2-cyclopentyl-1-(p-hydroxyphenyl)-1-phenylbutane]
IC50 (estrogen receptors): 0.1 to 1 µM
IC50 ([3]; Homo sapiens, MCF7): 1 to 5 µM

SMILES: CCC(C1CCCC1)C(c1ccccc1)c1ccc(O)cc1 (stereo not shown) [Compound 5, 2-cyclopentyl-1-(p-hydroxyphenyl)-1-phenylbutane]
estrogenic effect (in words) (immature mouse uterus [1]): did not possess any estrogenic effects of their own
antiestrogenic effect (in words) (immature mouse uterus [2]): not antiestrogenic
progestanic effect (in words) (mouse uterus [6]; given alone): did not possess progestanic effects
antiprogestanic / synergistic effect with medroxyprogesterone acetate (in words) (mouse uterus [7]; [9]): slight inhibition of medroxyprogesterone acetate produced effect
IC50 [3]: 1 to 5 µM

SMILES: CCC(C1CCCC1)C(c1ccccc1)c1ccc(O)cc1 (stereo not shown) [Compound 6, 2-cyclopentyl-1-(p-hydroxyphenyl)-1-phenylbutane]
estrogenic effect (in words) (immature mouse uterus [1]): did not possess any estrogenic effects of their own
antiestrogenic effect (in words) (immature mouse uterus [2]): not antiestrogenic
progestanic effect (in words) (mouse uterus [6]; given alone): did not possess progestanic effects
antiprogestanic / synergistic effect with medroxyprogesterone acetate (in words) (mouse uterus [7]; [9]): slight inhibition of medroxyprogesterone acetate produced effect
IC50 [3]: 1 to 5 µM

SMILES: CCC(c1ccc(O)cc1)C(CC)C1CCCC1 (stereo not shown) [Compound 9, 3-cyclopentyl-4-(p-hydroxyphenyl)-hexane]
IC50 (estrogen receptors): 0.1 to 1 µM
IC50 ([3]; Homo sapiens, MCF7): 1 to 10 µM

SMILES: CCC(CO)C(CC)c1ccc(O)cc1 (stereo not shown) [Compound 12, 2-ethyl-3-(p-hydroxyphenyl)-1-pentanol]
IC50 (estrogen receptors): 10 to 100 µM

SMILES: CC(=O)O[C@]1(C(C)=O)CC[C@H]2[C@@H]3C[C@H](C)C4=CC(=O)CC[C@]4(C)[C@H]3CC[C@@]21C [medroxyprogesterone acetate, Medroxyprogesterone acetate, reference compound]
decrease of mouse uterus weight by medroxyprogesterone acetate alone (mouse uterus [6]; reference compared with compound 8): 20%
reduction of mouse uterus weight by medroxyprogesterone acetate alone (mouse uterus [6]; reference compared with compounds 2 and 11): 40%

The next lines start with results.

IC50 (estrogen receptors): 0.1 to 10 µM
IC50 ([3]; Homo sapiens, MCF7): 5 to 10 µM
SMILES: CC/C(=C(\c1ccccc1)c1ccc(OCCN(C)C)cc1)C1CCCC1 [Compound 2, (Z)--2-cyclopentyl-1-(p-(N,N--dimethyl-2-amino-ethoxy)phenyl)-1-phenyl-1-butene, hydrochloride]
oestrogenic effect, % less than that of oestradiol 0.05 mg/kg (immature mouse uterus [1]; 5 mg/kg): 60%
Given alone: oestrogenic effect (in words) (immature mouse uterus [1]): oestrogenic
estrogenic effect (in words) (immature mouse uterus [1]): dose dependent
inhibition of oestradiol induced effect on mouse uterus (immature mouse uterus [2]; 5 mg/kg): 50%
Given with oestradiol: effect (in words) (immature mouse uterus [2]; [8]): antioestrogenic
Given with oestradiol: reduction in mice uterus weight (immature mouse uterus [2]; [8]): 36%
Given alone: progestanic effect (in words) (mouse uterus [6]; given alone): progestanic
Given alone: reduction in mice uterus weight (mouse uterus [6]; given alone): 49%
reduction of mouse uterus weight compared to control (mouse uterus [6]; given alone, dose not given): 49%
Given with medroxyprogesterone acetate: effect (in words) (mouse uterus [7]): synergistic
Given with medroxyprogesterone acetate: reduction in mice uterus weight (mouse uterus [7]): 61%
antiprogestanic / synergistic effect with medroxyprogesterone acetate (in words) (mouse uterus [7]; [9]): no antiprogestanic effects but a synergistic effect could be seen
decrease in size of tumours compared to the control ([4]; 7.5 mg/kg): 63%
relative tumour size compared to controls which is 100 ([5]; 1.0 mg/kg): 82
relative tumour size compared to controls which is 100 ([5]; 5.0 mg/kg): 87
relative tumour size compared to controls which is 100 ([5]; 10.0 mg/kg): 69

IC50 (estrogen receptors): 0.1 to 1 µM
IC50 ([3]; Homo sapiens, MCF7): 1 to 5 µM
SMILES: CCC(=C(c1ccc(O)cc1)c1ccc(OCCN(C)C)cc1)C1CCCC1 [Compound 7, 2-cyclopentyl-1-[p-(N,N-dimethyl-2-aminoethoxy)phenyl]-1-(p-hydroxyphenyl)-1-butene]
oestrogenic effect, % less than that of oestradiol 0.05 mg/kg (immature mouse uterus [1]; 0.5 mg/kg): 75%
Given alone: oestrogenic effect (in words) (immature mouse uterus [1]): oestrogenic
estrogenic effect (in words) (immature mouse uterus [1]): dose dependent
inhibition of oestradiol induced effect on mouse uterus (immature mouse uterus [2]; 5 mg/kg): 48%
Given with oestradiol: reduction in mice uterus weight (immature mouse uterus [2]; Table 2, 5 mg/kg, with oestradiol 0.05 mg/kg): 48%
progestanic effect (in words) (mouse uterus [6]; given alone): did not posses any progestanic effects of its own
antiprogestanic / synergistic effect with medroxyprogesterone acetate (in words) (mouse uterus [7]; [9]): clear dose dependant antiprogestanic effect

IC50 (estrogen receptors): 10 to 100 µM
IC50 ([3]; Homo sapiens, MCF7): 5 to 10 µM
SMILES: CC/C(=C(\c1ccccc1)c1ccc(OCCNC)cc1)C1CCCC1 [Compound 10, (Z)--2-cyclopentyl-1-[p-(N--methyl-2-aminoethoxy)-phenyl]-1-phenyl-1-butene, hydrochloride]

IC50 (estrogen receptors): 10 to 100 µM
IC50 ([3]; Homo sapiens, MCF7): 1 to 10 µM
SMILES: CCC(=C(c1ccc(OC)cc1)c1ccc(OCCN(C)C)cc1)C1CCCC1 [Compound 11, 2-cyclopentyl-1-[p-(N,N-dimethyl-2-aminoethoxy)phenyl]-1-(p-methoxyphenyl)-1-butene]
Given alone: progestanic effect (in words) (mouse uterus [6]; given alone): progestanic
Given alone: reduction in mice uterus weight (mouse uterus [6]; given alone): 20%
progestanic effect (in words) (mouse uterus [6]; given alone): purely due to its progestanic effect
reduction of mouse uterus weight (mouse uterus [6]; given alone, 0.5 mg/kg): 20%
Given with medroxyprogesterone acetate: effect (in words) (mouse uterus [7]): synergistic
Given with medroxyprogesterone acetate: reduction in mice uterus weight (mouse uterus [7]): 67%
reduction of mouse uterus weight together with medroxyprogesterone acetate (mouse uterus [7]; together with medroxyprogesterone acetate, vs 40% for the acetate alone): 67%
relative tumour size compared to controls which is 100 ([5]; 1.0 mg/kg): 87
relative tumour size compared to controls which is 100 ([5]; 5.0 mg/kg): 87
relative tumour size compared to controls which is 100 ([5]; 10.0 mg/kg): 50

From US4556677A, “Alkane and alkene derivatives and their use” (Farmos Group Ltd., priority 1981, dated 1985)
